IC50 data for 24 compounds are collected here from patent publication US7115658B2 (priority 2002, dated 2006).

Bounds are passed on as bounds.

T1 sequence (P26663 2420-3010): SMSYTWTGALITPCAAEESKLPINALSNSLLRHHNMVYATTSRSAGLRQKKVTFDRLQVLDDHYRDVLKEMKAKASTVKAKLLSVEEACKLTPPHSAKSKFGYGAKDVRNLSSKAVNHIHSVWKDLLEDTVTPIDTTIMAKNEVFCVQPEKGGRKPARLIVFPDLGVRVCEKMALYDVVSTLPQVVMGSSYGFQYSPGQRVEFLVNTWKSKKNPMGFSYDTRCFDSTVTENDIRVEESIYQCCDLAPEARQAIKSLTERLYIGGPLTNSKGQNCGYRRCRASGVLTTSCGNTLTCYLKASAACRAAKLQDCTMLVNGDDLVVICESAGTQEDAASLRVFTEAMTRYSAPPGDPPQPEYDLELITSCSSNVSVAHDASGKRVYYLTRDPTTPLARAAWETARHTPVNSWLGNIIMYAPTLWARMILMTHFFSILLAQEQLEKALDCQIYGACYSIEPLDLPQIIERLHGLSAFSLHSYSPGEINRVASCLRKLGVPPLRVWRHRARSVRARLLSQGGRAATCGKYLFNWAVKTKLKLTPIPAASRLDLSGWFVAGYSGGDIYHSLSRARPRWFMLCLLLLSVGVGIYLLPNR

This experiment concerns the target T1, Recombinant HCV polymerase (Hepatitis C virus genotype 1b, UniProt P26663).
T1 construct: 2.5 pmoles (0.15 μg) HCV polymerase protein
Nature of the experiment: HCV Polymerase Inhibition Assay. Conditions: primer/template-directed transcription, 30 minutes at 30° C.; category symbol. In kind it is biochemical. In outline: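 Recombinant genotype 1b polymerase (2.5 pmol) extended biotin-dG12 on poly(rC)300 with 1 μM GTP plus α-32P-GTP, pH 7.2, 30 min at 30 °C, 1% DMSO final; DE-filter-bound product counted. IC50 fitted from triplicate cpm, refitted with enzyme-concentration (30 nM) tight-binding equation when below 200 nM.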
Usually IC50 stands for the point on the concentration scale where inhibition reaches its midpoint. As to `COc1cc(F)c(CCC2(C3CCCC3)CC(=O)CC(=O)O2)cc1F` (stereo not drawn) [Example 74, 6-Cyclopentyl-6-[2-(2,5-difluoro-4-methoxy-phenyl)-ethyl]-dihydro-pyran-2,4-dione], the IC50 fell in the range of 1 to 10 µM.
For the compound `COc1ccc(CCC2(C3CCCC3)CC(O)=C(Sc3ccc(O)cc3)C(=O)O2)cc1Cl` (stereo not drawn) [Example 126, 6-[2-(3-Chloro-4-methoxy-phenyl)-ethyl]-6-cyclopentyl-4-hydroxy-3-(4-hydroxy-phenylsulfanyl)-5,6-dihydro-pyran-2-one], the IC50 is under 1 µM.
For `COc1cc(OC)c(CCC2(C3CCCC3)CC(O)=C(Sc3cnccn3)C(=O)O2)cc1Cl` (stereo not drawn) [Example 108, 6-[2-(5-Chloro-2,4-dimethoxyphenyl)ethyl]-6-cyclopentyl-4-hydroxy-3-(pyrazin-2-ylthio)-5,6-dihydro-2H-pyran-2-one] the value was under 1 µM; for `CCn1nnnc1SC1=C(O)CC(CCc2ccc(OC)cc2)(C2CCCC2)OC1=O` (stereo not drawn) [Example 121, 6-Cyclopentyl-3-[(1-ethyl-1H-tetraazol-5-yl)thio]-4-hydroxy-6-[2-(4-methoxyphenyl)ethyl]-5,6-dihydro-2H-pyran-2-one], under 1 µM; for `CCOC(=O)c1c[nH]c(SC2=C(O)CC(CCc3ccc(OC)cc3)(C3CCCC3)OC2=O)n1` (stereo not drawn) [Example 119, Ethyl 2-({6-cyclopentyl-4-hydroxy-6-[2-(4-methoxyphenyl)ethyl]-2-oxo-5,6-dihydro-2H-pyran-3-yl}thio)-1H-imidazole-4-carboxylate], 1 to 10 µM.
Consider `O=C(Cc1cccnc1)C1C(=O)CC(CCc2cccc(Cl)c2)(C2CCCC2)OC1=O` (stereo not drawn) [Example 174, 6-[2-(3-Chloro-phenyl)-ethyl]-6-cyclopentyl-3-(2-pyridin-3-yl-acetyl)-dihydro-pyran-2,4-dione], for which the IC50 lay within 1 to 10 µM.
For `Cc1cc(C)n2nc(SC3=C(O)CC(CCc4ccc(OCc5ccccc5)cc4)(C4CCCC4)OC3=O)nc2n1` (stereo not drawn) [Example 122, 6-{2-[4-(Benzyloxy)phenyl]ethyl}-6-cyclopentyl-3-[(5,7-dimethyl[1,2,4]triazolo[1,5-a]pyrimidin-2-yl)thio]-4-hydroxy-5,6-dihydro-2H-pyran-2-one] the value was under 1 µM.
For `Cc1cc(SC2=C(O)CC(CCC3CCCC3)(C3CCCC3)OC2=O)c(C(C)(C)C)cc1CO` (stereo not drawn) [Example 145, 3-(2-tert-butyl-4-hydroxymethyl-5-methyl-phenylsulfanyl)-6-cyclopentyl-6-(2-cyclopentyl-ethyl)-4-hydroxy-5,6-dihydro-pyran-2-one] the value was 10 to 50 µM; for `Cc1cc(SC2=C(O)CC(CCc3ccco3)(C(C)C)OC2=O)c(C(C)(C)C)cc1CO` (stereo not drawn) [Example 134], 1 to 10 µM.
The same measure for `COc1ccc(CCC2(C3CCCC3)CC(O)=C(Sc3nnnn3CCN(C)C)C(=O)O2)cc1` (stereo not drawn) [Example 116, 6-Cyclopentyl-3-({1-[2-(dimethylamino)ethyl]-1H-tetraazol-5-yl}thio)-4-hydroxy-6-[2-(4-methoxyphenyl)ethyl]-5,6-dihydro-2H-pyran-2-one]: 1 to 10 µM; for `COc1cc(OC)c(CCC2(C3CCCC3)CC(O)=C(Sc3nnc(-c4cccs4)n3C)C(=O)O2)cc1Cl` (stereo not drawn) [Example 96, 6-[2-(5-chloro-2,4-dimethoxyphenyl)ethyl]-6-cyclopentyl-4-hydroxy-3-[(4-methyl-5-thien-2-yl 4H-1,2,4-triazol-3-yl)thio]-5,6-dihydro-2-one]: under 1 µM; for `Cc1cc(CCC2(C3CCCC3)CC(O)=CC(=O)O2)ccc1C1(C)OCCO1` (stereo not drawn) [Example 18, 6-Cyclopentyl-4-hydroxy-6-{2-[3-methyl-4-(2-methyl-1,3-dioxolan-2-yl)-phenyl]-ethyl}-5,6-dihydro-pyran-2-one]: 1 to 10 µM.
Take `Cc1noc(COc2ccc(CCC3(C4CCCC4)CC(O)=CC(=O)O3)cc2)n1` (stereo not drawn) [Example 48, 6-Cyclopentyl-6-(2-{4-[(3-methyl-1,2,4-oxadiazol-5-yl)methoxy]phenyl}ethyl)4-hydroxy-5,6-dihydro-2H-pyran-2-one]: the IC50 lay in the range of 10 to 50 µM.
The same measure for `Cc1ccc(S(=O)(=O)Oc2cc(C(C)(C)C)c(SC3=C(O)CC(CCc4ccc(O)cc4)(C4CCCCC4)OC3=O)cc2C)cc1` (stereo not drawn) [Example 137, Toluene-4-sulfonic acid 5-tert-butyl-4-(6-Cyclohexyl-4-hydroxy-6-[2-(4-hydroxy-phenyl)-ethyl]-2-oxo-5,6-dihydro-2H-pyran-3-ylsulfanyl)-2-methyl-phenyl ester]: 10 to 50 µM; for `O=C1C=C(O)CC(CCc2ccc(OCc3ccc(C(F)(F)F)nc3)cc2)(C2CCCC2)O1` (stereo not drawn) [Example 52, 6-Cyclopentyl-6-[2-(4-{[6-(trifluoromethyl)pyridin-3-yl]methoxy}phenyl)ethyl]4-hydroxy-5,6-dihydro-2H-pyran-2-one]: 10 to 50 µM; for `O=C1CC(=O)OC(CCc2cccc3ccccc23)(C2CCCC2)C1` (stereo not drawn) [Example 2, 6-Cyclopentyl-6-(2-napthalen-1-ylethyl)dihydropyran-2,4-dione]: over 50 µM.
The same measure for `COc1cc(CCC2(C3CCCC3)CC(O)=CC(=O)O2)ccc1OCc1ccccc1` (stereo not drawn) [Example 20, 6-[2-(4-Benzyloxy-3-methoxy-phenyl)-ethyl]-6-cyclopentyl-4-hydroxy-5,6-dihydro-pyran-2-one]: 1 to 10 µM; for `CC(C)COc1ccc(CCC2(C3CCCC3)CC(=O)CC(=O)O2)cc1F` (stereo not drawn) [Example 70, 6-Cyclopentyl-6-[2-(3-fluoro-4-isobutoxy-phenyl)-ethyl]-dihydro-pyran-2,4-dione]: 1 to 10 µM; for `Cc1cc(SC2=C(O)CC(CCc3ccc(O)cc3)(c3ccccc3)OC2=O)c(C(C)(C)C)cc1CO` (stereo not drawn) [Example 154, 3-(2-tert-butyl-4-hydroxymethyl-5-methyl-phenylsulfanyl)-4-hydroxy-6-[2-(4-hydroxy-phenyl)-ethyl]-6-phenyl-5,6-dihydro-pyran-2-one]: over 50 µM.
For `O=C1CC(=O)OC(CCc2ccc(F)c(F)c2)(C2CCCC2)C1` (stereo not drawn) [Example 54, 6-Cyclopentyl-6-[2-(3,4-difluoro-phenyl)-ethyl]-dihydro-pyran-2,4-dione] the value was 10 to 50 µM.
Consider `COc1ccc(CCC2(C3CCCC3)CC(O)=C(Sc3nc[nH]n3)C(=O)O2)cc1Cl` (stereo not drawn) [Example 124, 6-[2-(3-Chloro-4-methoxy-phenyl)-ethyl]-6-cyclopentyl-4-hydroxy-3-(1 H[1,2,4]triazol-3-ylsulfanyl)-5,6-dihydro-pyran-2-one], for which the IC50 was under 1 µM.
As to `CC1(c2ccc(CCC3(C4CCCC4)CC(=O)CC(=O)O3)cc2F)OCCO1` (stereo not drawn) [Example 60, 6-Cyclopentyl-6-{2-[3-fluoro-4-(2-methyl-[1,3]dioxolan-2-yl)-phenyl]-ethyl}-dihydro-pyran-2,4-dione], the IC50 was in the range of 1 to 10 µM.
In the case of `COc1cc(OC)c(CCC2(C3CCCC3)CC(O)=C(Sc3nc(N)c4cn[nH]c4n3)C(=O)O2)cc1Cl` (stereo not drawn) [Example 97, 3-[(4-amino-1H-pyrazolo[3,4-d]pyrimidin-6-yl)thio]-6-[2-(5-chloro-2,4-dimethoxyphenyl)ethyl]-6-cyclopentyl-4-hydroxy-5,6-dihydro-2H-pyran-2-one], the IC50 was under 1 µM.
Regarding `Cc1cc(SC2=C(O)CC(CCc3cc(Cl)c(N)c(Cl)c3)(C(C)C)OC2=O)c(C(C)(C)C)cc1N` (stereo not drawn) [Example 138, 3-(4-Amino-2-tert-butyl-5-methyl-phenylsulfanyl)-6-[2-(4-amino-3,5-dichloro-phenyl)-ethyl]-4-hydroxy-6-isopropyl-5,6-dihydro-pyran-2-one], the IC50 was 10 to 50 µM.
